We go through 1 compound from patent publication US20090246281A1, “Soft steroid compositions for use in dry powder inhalers” (Norton Healthcare Ltd., priority 2003, published 2009).

A short description of the data set: Stability of EDA dry mix versus EDA solutions in solvents. Format: physicochemical. From the text: In comparison, solutions prepared by dissolving 2 wt % EDA in a) pure methanol, b) pure ethanol, c) methanol+10 wt % water (pH 4.5) and d) ethanol+10% water (pH 4.5), were stable for 2 days, 2 days, 4 days and 4 days, respectively.

Take `CCOC(=O)[C@@]1(OC(=O)C(Cl)Cl)CCC2C3CCC4=CC(=O)C=CC4(C)C3C(O)CC21C` (stereo partly drawn) [EDA, ethyl 17α-dichloroacetoxy-11β-hydroxyandrosta-1,4-dien-3-one-17β-carboxylate]: the “Time stable in solution” value by setting is: (2 wt % EDA in ethanol+10% water (pH 4.5)) 4 days; (2 wt % EDA in methanol+10 wt % water (pH 4.5)) 4 days; (2 wt % EDA in pure ethanol) 2 days; (2 wt % EDA in pure methanol) 2 days.
